Results: US6426231B1 (priority 1998, dated 2002)
Values joined by “and” are separate entries in the source; they are usually repeats but may differ in a detail not shown here. Equal entries are not always repeated. “Also recorded” adds a separate entry of the source. Where two headings read alike, the source gives them in different places.

Experiments:
αHL pore = αHL pore (Staphylococcus aureus, UniProt P09616); assay type: biochemical
αHL•βCD = αHL•βCD (Staphylococcus aureus, UniProt P09616); assay: biochemical; assay type: biochemical; conditions: for K^Af (formation constant of αHL•βCD•A) / ΔG of analyte binding to αHL•βCD: pH 3.0
[1] = assay type: binding; conditions: pH 3.0
WT-αHL pore = WT-αHL pore (Staphylococcus aureus, UniProt P09616); assay type: biochemical; conditions: pH 7.5
[2] = cited from earlier work

Sequence of WT-αHL pore (P09616 27-319 limits assumed): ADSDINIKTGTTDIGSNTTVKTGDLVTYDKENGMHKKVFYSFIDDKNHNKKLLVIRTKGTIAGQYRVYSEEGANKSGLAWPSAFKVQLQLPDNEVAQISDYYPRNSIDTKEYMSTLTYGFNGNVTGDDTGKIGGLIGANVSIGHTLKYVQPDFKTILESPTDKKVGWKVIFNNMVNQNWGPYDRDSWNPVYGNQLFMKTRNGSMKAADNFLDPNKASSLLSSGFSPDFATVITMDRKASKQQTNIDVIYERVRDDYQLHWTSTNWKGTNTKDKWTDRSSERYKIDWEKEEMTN
Sequence of αHL•βCD (P09616 27-319 limits assumed): as above
Sequence of αHL pore (P09616 27-319 limits assumed): as above

Compound: Cl.NC1C2CC3CC(C2)CC1C3 (stereo not shown) [2-adamantanamine hydrochloride]
- effect on the completely open channel (αHL pore; hydrochloride): does not affect; also recorded: no effect
- (IP·C·A IP·C)/(IP·C·A-IP) (αHL•βCD): 0.286 ± 0.004
- Kd (αHL•βCD): 98.6 ± 14.3 µM
- Residence time (τ) of the analyte on αHL·βCD (αHL•βCD): 2.54 ± 0.21 ms
- conductance of the partially blocked channel (αHL•βCD) with guest (αHL•βCD): 126.5 pS
- residence time (τ) of guest (αHL•βCD): 2.54 ms
- residence time of βCD•A on αHL compared with βCD (αHL•βCD): greater than βCD itself
- single channel current level, additional block of αHL•βCD (αHL•βCD): −5.7 pA
- K^Af (formation constant of αHL•βCD•A) (αHL•βCD): 1.03±0.15×10^4 M^−1
- ΔG of analyte binding to αHL•βCD (αHL•βCD): -5.5 kcal/mol
- K^Af (formation constant of analyte with βCD in solution) [1]: 9.84±2.19×10^3 M^−1
- ΔG of analyte binding to βCD in solution [1]: -5.5 kcal/mol

Compound: NC(=O)C12CC3CC(CC(C3)C1)C2 [1-adamantanecarboxamide]
- (IP·C·A IP·C)/(IP·C·A-IP) (αHL•βCD): 0.333 ± 0.005
- Kd (αHL•βCD): 34.2 ± 2.77 µM
- Residence time (τ) of the analyte on αHL·βCD (αHL•βCD): 3.99 ± 0.18 ms

Compound: β-cyclodextrin [βCD]
- block of the ionic current (αHL pore): reversible partial blocks
- partial block of the channel (αHL pore): 64%
- single channel current level with βCD bound (αHL pore): −11.5 pA
- K^Cf (equilibrium formation constant αHL•βCD) (αHL pore; pH 3): 475 M⁻¹
- conductance of αHL in the presence of βCD (αHL pore; pH 3): 272 pS
- k^Coff (αHL pore; pH 3): 115 s⁻¹
- k^Con (αHL pore; pH 3): 54600 M⁻¹ s⁻¹
- dwell time (τ) of adapter on WT-αHL pore (WT-αHL pore): 0.84 ms
- g (conductance) (WT-αHL pore): 240 pS and 240 ± 5 pS

Compound: γ-cyclodextrin [γCD]
- block of the ionic current (αHL pore): reversible partial blocks
- g (conductance) (WT-αHL pore): 328 pS and 328 ± 4 pS

Compound: O=C(O)C12CC3CC(CC(C3)C1)C2 [1-adamantanecarboxylic acid]
- binding to the pore without adapter/carrier (αHL pore): does not bind to the pore
- (IP·C·A IP·C)/(IP·C·A-IP) (αHL•βCD): 0.346 ± 0.005
- Kd (αHL•βCD): 7.53 ± 1.16 µM
- Residence time (τ) of the analyte on αHL·βCD (αHL•βCD): 14.0 ± 0.79 ms
- conductance of the partially blocked channel (αHL•βCD) with guest (αHL•βCD): 112.2 pS
- residence time (τ) of guest (αHL•βCD): 14.0 ms
- single channel current level, additional block of αHL•βCD (αHL•βCD): −4.7 pA
- K^Af (formation constant of αHL•βCD•A) (αHL•βCD): 1.35±0.19×10^5 M^−1
- ΔG of analyte binding to αHL•βCD (αHL•βCD): -7.0 kcal/mol
- K^Af (formation constant of analyte with βCD in solution) [1]: 5.76±1.50×10^4 M^−1
- ΔG of analyte binding to βCD in solution [1]: -6.5 kcal/mol
- Literature ΔG for binding to βCD ([2]; pH 4.05): -7.5 kcal/mol
- Literature ΔG for binding to βCD ([2]; pH 7.2): -6.4 kcal/mol

Compound: heptakis-6-sulfato-β-cyclodextrin [s7βCD]
- PK+/PNa+ (WT-αHL pore): 0.92
- dwell time (τ) of adapter on WT-αHL pore (WT-αHL pore): 846 ± 37 ms
- g (conductance) (WT-αHL pore): 53 pS and 53 ± 6 pS

Compound: Cl.NC12CC3CC(CC(C3)C1)C2 [1-adamantanamine hydrochloride]
- (IP·C·A IP·C)/(IP·C·A-IP) (αHL•βCD): 0.294 ± 0.005
- Kd (αHL•βCD): 109 ± 4.95 µM
- Residence time (τ) of the analyte on αHL·βCD (αHL•βCD): 1.42 ± 0.14 ms

Compound: OCCC12CC3CC(CC(C3)C1)C2 [1-adamantaneethanol]
- (IP·C·A IP·C)/(IP·C·A-IP) (αHL•βCD): 0.348 ± 0.003
- Kd (αHL•βCD): 3.33 ± 1.07 µM
- Residence time (τ) of the analyte on αHL·βCD (αHL•βCD): 30.6 ± 2.42 ms

Compound: CC(=O)NC12CC3CC(CC(C3)C1)C2 [N-(1-adamantyl)acetamide, N-(1-adamantyl)-acetamide]
- (IP·C·A IP·C)/(IP·C·A-IP) (αHL•βCD): 0.348 ± 0.003
- Kd (αHL•βCD): 14 ± 2.24 µM
- Residence time (τ) of the analyte on αHL·βCD (αHL•βCD): 7.32 ± 2.13 ms

Compound: α-cyclodextrin
- block of the ionic current (αHL pore): reversible partial blocks
